For five compounds, IC50 results are on record in ChEMBL document CHEMBL4819143, “Discovery of JMJD7 inhibitors with the aid of virtual screening and bioactivity evaluation” (Bioorg Med Chem Lett, 2021).

Assay [1] deals with Bifunctional peptidase and (3S)-lysyl hydroxylase JMJD7 (Homo sapiens, UniProt P0C870). As to the kind of experiment: Inhibition of N-terminal His-tagged human JMJD7 (1 to 316 residues) expressed in Escherichia coli BL21 (DE3) luciferase based succinate-gloTM JmjC demethylase/hydroxylase assay.
Bifunctional peptidase and (3S)-lysyl hydroxylase JMJD7, sequence (P0C870 whole entry, the tested form may be a part): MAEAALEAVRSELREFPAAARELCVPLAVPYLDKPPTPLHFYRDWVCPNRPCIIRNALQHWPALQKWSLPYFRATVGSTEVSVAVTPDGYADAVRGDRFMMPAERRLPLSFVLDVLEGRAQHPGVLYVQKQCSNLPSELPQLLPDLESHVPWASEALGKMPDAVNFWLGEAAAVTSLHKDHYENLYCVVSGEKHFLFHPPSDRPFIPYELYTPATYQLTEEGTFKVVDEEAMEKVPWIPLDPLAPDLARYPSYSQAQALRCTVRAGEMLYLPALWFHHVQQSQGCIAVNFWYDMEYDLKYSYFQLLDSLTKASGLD
In a further assay the test system is T47D. Nature of the assay: Cytotoxicity against human T47D cells assessed as growth inhibition measured after 72 hrs by MTT assay. (In general: Tetrazolium dyes change colour on reduction, which living cells bring about.)
For a further assay, the system named is HeLa. As to the kind of experiment: Cytotoxicity against human HeLa cells assessed as growth inhibition measured after 72 hrs by MTT assay.
The test system of another assay is SK-BR-3. As to the kind of experiment: Cytotoxicity against human SK-BR-3 cells assessed as growth inhibition measured after 72 hrs by MTT assay. The conditions noted are these: SK-BR-3, 72 h.
A further assay has as its system Jurkat. Nature of the assay: Cytotoxicity against human Jurkat cells assessed as growth inhibition measured after 72 hrs by MTT assay.
Another assay concerns BJ. As to the kind of experiment: Cytotoxicity against human BJ cells assessed as growth inhibition measured after 72 hrs by MTT assay.
The subject of the next assay is SH-SY5Y. Nature of the assay: Cytotoxicity against human SH-SY5Y cells assessed as growth inhibition measured after 72 hrs by MTT assay.

As usually defined, the IC50 is the concentration needed to halve the response being measured.

`CCCNC(=O)c1ccc(-c2nc3ccccc3s2)s1` gave an IC50 in assay [1] of 11 µM.
Still for that read-out and setting: for `COc1cccc(-c2ccc(NC(=O)C3=C(C(=O)O)CCC3)c(F)c2)c1` [VIDOFLUDIMUS] the value was 7.16 µM; for `Oc1c(C(Nc2ccccn2)c2ccccc2)ccc2cccnc12` (stereo not given), 31.6 µM.
With `O=C(Oc1ccc([N+](=O)[O-])c2cccnc12)c1ccc(Cl)cc1Cl`, the IC50 was 9.4 µM in the assay with T47D; 16.1 µM with HeLa; 13.3 µM in the assay on SK-BR-3; 15 µM in the assay on Jurkat; more than 100 µM in the assay with BJ; more than 100 µM in the assay on SH-SY5Y.
`COc1ccc(CCC(=O)Nc2ccccc2C(=O)O)cc1OC` displayed an IC50 in assay [1] of 33.2 µM.
